Data as given in patent US8927715B2, “Inhibitors of 11β-hydroxysteroid dehydrogenase type 1” (Vitae Pharmaceuticals, Inc., priority 2006, dated 2015).

Experiments:
[1] = target: T1, human 11β-HSD1 (Homo sapiens, UniProt P28845); assay: Scintillation Proximity Assay: inhibition of purified 11β-HSD1 (Biological Test Example 1); type: biochemical; parameters: made in house; host or cells: E. coli; conditions: purified recombinant 11β-HSD1, SPA; read-out: Biological Test Example 1 (IC50 class)
Procedure: The inhibition of purified 11β-HSD1 by compounds of Formula I or I* is measured using a Scintillation Proximity Assay. All reactions are carried out at room temperature in 96 well flexible Microbeta reaction plates. First, 1 μL of a 0.1 mM solution of a compound of Formula I or I* is mixed in DMSO diluted in half-log increments (8 points) starting at 1 μM final concentration. To this dot is added 50 μL of substrate solution (50 mM HEPES, pH 7.4, 100 mM KCl, 5 mM NaCl, 2 mM MgCl2 containing 20 μM ^3H cortisone, 1 mM NADPH). […] The reaction is then incubated for 90 minutes, and stopped by adding 50 μl of SPA bead mix (18-β-glycyrrhetinic acid, 10 μM final, 5 mg/ml protein A coated YSi SPA beads, and 1 μg/ml α-cortisol antibody (East Coast Biologics)). The plate is shaken for 120 minutes, and the radioactivity corresponding to ^3H cortisol is measured on a Wallac Microbeta.
Target sequence in this assay (P28845 whole entry, species assumed): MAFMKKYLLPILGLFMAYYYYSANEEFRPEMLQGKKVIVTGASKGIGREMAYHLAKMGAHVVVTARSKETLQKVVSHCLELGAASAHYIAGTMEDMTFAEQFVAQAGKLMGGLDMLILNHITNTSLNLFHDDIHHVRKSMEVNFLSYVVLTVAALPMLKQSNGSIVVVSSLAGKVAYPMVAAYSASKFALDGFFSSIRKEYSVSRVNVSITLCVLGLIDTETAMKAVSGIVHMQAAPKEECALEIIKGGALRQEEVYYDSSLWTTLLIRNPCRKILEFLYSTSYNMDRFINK

[2] = target: T1, human 11β-HSD1; assay: Inhibition of a microsomal preparation of 11β-HSD1, SPA (Biological Test Example 2); type: biochemical; parameters: expressed in transfected cells; host or cells: CHO cells (microsomes); conditions: read-out: Biological Test Example 2 (IC50 class)
Method in brief: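 [3H]cortisol formation quantified by scintillation proximity with anti-cortisol antibody on protein A beads, reaction quenched by 10 nM 18β-glycyrrhetinic acid. Enzyme source: CHO-cell microsomes expressing human 11β-HSD1, 10-20 μg/ml protein, incubated 90 min at room temperature following 10 min pre-incubation.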
Target sequence in this assay (P28845 whole entry): as the sequence (P28845 whole entry, species assumed) above

Row | IC50 [1] [nM] | IC50 [2] [nM] | SMILES
1 | 50 to 1000 |  | CC(C)(C)OC(=O)N1CCC2(CCCN(C(=O)NC3C4CC5CC(C4)CC3C5)C2)C1 (racemic) [Example 10, (±)-tert-Butyl 7((2-adamantyl)carbamoyl)-2,7-diazaspiro[4.5]decane-2-carboxylate]
2 | < 50 |  | O=C(O)C1CC2(CCN(C(=O)NC3C4CC5CC(C4)CC3C5)CC2)c2ccccc21 (racemic) [Example 12, (±)-1′-((2-Adamantyl)carbamoyl)-2,3-dihydrospiro[indene-1,4′-piperidine]-3-carboxylic acid]
3 | 50 to 1000 |  | O=C(O)C1CC2(CCN(C(=O)NC3C4CC5CC(C4)CC3C5)CC2)Oc2ccccc21 (racemic) [Example 13, (±)-1′-((2-Adamantyl)carbamoyl)spiro[chroman-2,4′-piperidine]-4-carboxylic acid]
4 | < 50 |  | COC(=O)CC1CC2(CCN(C(=O)OC3C4CC5CC(C4)CC3C5)CC2)c2ccccc21 (racemic) [Example 24, (±)-2-Adamantyl 3-(2-methoxy-2-oxoethyl)-2,3-dihydrospiro[indene-1,4′-piperidine]-1′-carboxylate]
5 |  | < 50 | CN(C)CCNC(=O)CC1CC2(CCN(C(=O)NC3C4CC5CC(C4)CC3C5)CC2)c2c(Br)cccc21 (stereo not shown) [Example 114, 7-Bromo-N-(2-adamantyl)-3-(2-(2-(dimethylamino)ethylamino)-2-oxoethyl)-2,3-dihydrospiro[indene-1,4′-piperidine]-1′-carboxamide]
6 |  | < 50 | CNCCN(C)C(=O)CC1CC2(CCN(C(=O)NC3C4CC5CC(C4)CC3C5)CC2)c2c(Br)cccc21 (stereo not shown) [Example 115, 7-Bromo-N-(2-adamantyl)-3-(2-(methyl(2-(methylamino)ethyl)amino)-2-oxoethyl)-2,3-dihydrospiro[indene-1,4′-piperidine]-1′-carboxamide]
7 |  | < 50 | CN(C)CCN(C)C(=O)CC1CC2(CCN(C(=O)NC3C4CC5CC(C4)CC3C5)CC2)c2c(Br)cccc21 (stereo not shown) [Example 116]
8 |  | < 50 | CN(C)CCCNC(=O)CC1CC2(CCN(C(=O)NC3C4CC5CC(C4)CC3C5)CC2)c2c(Br)cccc21 (stereo not shown) [Example 117, 7-Bromo-N-(2-adamantyl)-3-(2-(3-(dimethylamino)propylamino)-2-oxoethyl)-2,3-dihydrospiro[indene-1,4′-piperidine]-1′-carboxamide]
9 |  | < 50 | O=C(CC1CC2(CCN(C(=O)NC3C4CC5CC(C4)CC3C5)CC2)c2c(Br)cccc21)NCCN1CCNCC1 (stereo not shown) [Example 119, 7-Bromo-N-(2-adamantyl)-3-(2-oxo-2-(2-(piperazin-1-yl)ethylamino)ethyl)-2,3-dihydrospiro[indene-1,4′-piperidine]-1′-carboxamide]
10 |  | < 50 | O=C(CC1CC2(CCN(C(=O)NC3C4CC5CC(C4)CC3C5)CC2)c2c(Br)cccc21)NCCN1CCOCC1 (stereo not shown) [Example 120, 7-Bromo-N-(2-adamantyl)-3-(2-(2-morpholinoethylamino)-2-oxoethyl)-2,3-dihydrospiro[indene-1,4′-piperidine]-1′-carboxamide]
11 |  | < 50 | CN1CCN(CCNC(=O)CC2CC3(CCN(C(=O)NC4C5CC6CC(C5)CC4C6)CC3)c3c(Br)cccc32)CC1 (stereo not shown) [Example 121, 7-Bromo-N-(2-adamantyl)-3-(2-(2-(4-methylpiperazin-1-yl)ethylamino)-2-oxoethyl)-2,3-dihydrospiro[indene-1,4′-piperidine]-1′-carboxamide]

Row | SMILES | IC50 [1] [nM] | IC50 [2] [nM]
12 | CCOC(=O)CC1CC2(CCN(C(=O)NC3C4CC5CC(C4)CC3C5)CC2)Oc2ccccc21 (racemic) [Example 18, (±)-Ethyl 2-1′-((2-adamantyl)carbamoyl)spiro[chroman-2,4′-piperidine]-4-yl)acetate] | 50 to 1000 | 
13 | CN(C)CCCCNC(=O)CC1CC2(CCN(C(=O)NC3C4CC5CC(C4)CC3C5)CC2)c2c(Br)cccc21 (stereo not shown) [Example 118, 7-Bromo-N-(2-adamantyl)-3-(2-(4-(dimethylamino)butylamino)-2-oxoethyl)-2,3-dihydrospiro[indene-1,4-r-piperidine]-1′-carboxamide] |  | < 50
